In patent US8895561B2, “Compounds and methods for treating candidiasis and aspergillus infections” (Cellceutix Corporation, priority 2012, dated 2014) one finds IC50, EC50 and inhibition data, which are given here for two molecules.

The structures appear in SMILES notation. Values after ≈ are worked out from the molar mass of the structure shown. Read-outs that look alike come from different tables or passages of the source.

One data set relates to C. albicans GDH2346. In words: Candida IC50, vegetative cells, by OD600 and fluorescence. Type of data set: cell-based. Conditions: Candida albicans, GDH2346; Table 6; read-out: IC50 C. albicans. An outline of the steps:
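Vegetative C. albicans GDH2346 in RPMI/MOPS pH 6.3 with FDGlu, an exoglucanase substrate giving fluorescent growth signal. OD600 and fluorescence read at 24 and 48 h; IC50 from the average of all four reads.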

Data set [1] in a line: Cytotoxicity, MTS viability assay. The class given is cell-based, human. Conditions: Table 6. The method, boiled down: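 Cytotoxicity in mouse 3T3 fibroblasts and human HepG2 liver cells measured by MTS viability assay. Values reported as EC50.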
(Tetrazolium dyes change colour on reduction, which living cells bring about.)

Another data set has as its system A. flavus (NRRL3357). In words: Anti-Aspergillus screen, CLSI M38-A, visual inhibition of growth. Type of data set: cell-based. As to conditions: screening concentration 10 μM, 24-48 hours. The protocol:
(§1) The in vitro efficacy of a library of compounds was assessed for antifungal activity against A. niger (AN1), A. fumigatus ([…]) and A. flavus (NRRL3357) and compared to that of Itraconazole. For a subset of compounds selected based upon efficacy in the screening study a full MIC profile was conducted. Efficacy of test articles was determined in RPMI 1640 broth with MOPS buffered to pH7.2 in accordance with CLSI guidelines M38-A for Antifungal Susceptibility Testing of Filamentous Fungi. The method was modified by using flat well plates to allow microscopic identification of growth. The final screening concentration of each test article was 10 μM. Assay plates were incubated aerobically at 37° C. for 24-48 hours. Following incubation, plates were assessed visually (by eye and microscopically) for inhibition of growth. Inhibition was recorded at 50%, 80% and 100% inhibition compared to the positive control.

The next data set has as its system A. fumigatus (A1163). The description is as above. Type of data set: cell-based. As to conditions: screening concentration 10 μM, 24-48 hours. The protocol: as §1
The subject of a further data set is A. niger (AN1). Described as above. Type of data set: cell-based. As to conditions: screening concentration 10 μM, 24-48 hours. Here is the method:
as §1

[2] abbreviates: human, HepG2 cells (transformed liver), read-out: Cytotoxicity EC50 Human HepG2.
[3] abbreviates: mouse, 3T3 fibroblasts, read-out: Cytotoxicity EC50 Mouse 3T3.

For the molecule `COc1cc(SCCNC(=N)N)c(C(F)(F)F)cc1NC(=O)c1cc(C(=O)Nc2cc(C(F)(F)F)c(SCCNC(=N)N)cc2OC)nc(SCCNC(=N)N)n1` [Cmpd 183], the IC50 – broadly, the concentration that gives 50% inhibition – with C. albicans GDH2346 came to 2 µg/mL (≈ 2.31 µM). For the same molecule, the EC50 (in general, the concentration needed to bring the measured effect to its halfway point) in data set [1] (setting [2]) is ≥ 1000 µM; in data set [1] (setting [3]) it was 478 µM. Moreover, the inhibition at 10 µM in the data set on A. flavus (NRRL3357), in the data set with A. fumigatus (A1163) and in the data set with A. niger (AN1) was 100% throughout.
As to `COc1ccc(CNC(=N)N)cc1NC(=O)c1cc(C(=O)Nc2cc(CNC(=N)N)ccc2OC)c(OCCC(C)C)cc1OCCC(C)C` [Cmpd 184], in the data set with C. albicans GDH2346, the IC50 was determined as 3.1 µg/mL (≈ 4.49 µM). For the same molecule, the values for the EC50 in data set [1] (setting [2]) and in data set [1] (setting [3]) were 155 µM and ≥ 1000 µM, respectively. Moreover, the inhibition at 10 µM in the data set on A. flavus (NRRL3357), in the data set with A. fumigatus (A1163) and in the data set on A. niger (AN1) was 100% throughout.
